# Experimental data taken from ChEMBL document CHEMBL1137292, “Synthesis and activity of a folate peptide camptothecin prodrug” (Bioorg Med Chem Lett, 2006).
# Starred links: 1 amine or outer side, 2 acyl side, 3 side chain; linkers in the order of their positions; H or OH if unused. Residues, ends and D or L forms follow the SMILES beside them. *: point of attachment. S(CH2)2OCO2(CPT-20-yl) = CC[C@@]1(OC(=O)OCCS*)C(=O)OCc2c1cc1n(c2=O)Cc2cc3ccccc3nc2-1; Pteroyl = Nc1nc2ncc(CNc3ccc(C(=O)*)cc3)nc2c(=O)[nH]1; γGlu = O=C(O)[C@H](CCC(=O)[*:2])N[*:1]
# What was measured:
# [1] = biological target: Folate receptor alpha (Homo sapiens) (UniProt P15328); assay: Displacement of [3H]folic acid from human folate receptor expressed in KB cells relative to folic acid; type: cell-based
# KB = assay: Antiproliferative activity against human KB cells expressing FR in presence of folic acid after 72 hrs by [3H]thymidine incorporation assay; type: functional, cell-based
# Chain of Folate receptor alpha (Homo sapiens) (P15328 25-234 limits assumed): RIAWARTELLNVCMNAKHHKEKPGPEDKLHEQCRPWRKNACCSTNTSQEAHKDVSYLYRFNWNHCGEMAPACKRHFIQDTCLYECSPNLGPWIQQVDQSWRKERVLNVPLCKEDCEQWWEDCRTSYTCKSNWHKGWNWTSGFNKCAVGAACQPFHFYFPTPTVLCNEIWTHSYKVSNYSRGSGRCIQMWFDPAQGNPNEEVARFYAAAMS
smiles,measurement,setting,value
CC[C@@]1(OC(=O)OCCSSC[C@H](NC(=O)[C@H](CC(=O)O)NC(=O)[C@H](CC(=O)O)NC(=O)[C@H](CCCNC(=N)N)NC(=O)[C@H](CC(=O)O)NC(=O)CC[C@H](NC(=O)c2ccc(NCc3cnc4nc(N)[nH]c(=O)c4n3)cc2)C(=O)O)C(=O)O)C(=O)OCc2c1cc1n(c2=O)Cc2cc3ccccc3nc2-1 ({Pteroyl-γGlu}-DRDDC(S(CH2)2OCO2(CPT-20-yl))-OH),relative binding affinity (RBA),[1],0.44
same,IC50,KB,0.01 µM
